Reference: article PMC8535176, “Efficacy of epetraborole against Mycobacterium abscessus is increased with norvaline” (PLoS Pathogens, 2021)
Values after ≈ are worked out from the molar mass of the structure shown.

Assays:
[1] = target: T1, M. tuberculosis LeuRS editing domain (LeuRSMtb; pMtbED) (Mycobacterium tuberculosis, UniProt P9WFV1); assay: isothermal titration calorimetry; format: binding
T1 construct: gene leuS
Excerpt: isothermal titration calorimetry on M. tuberculosis LeuRS editing domain (LeuRSMtb; pMtbED)

[2] = target: T2, M. abscessus LeuRS editing domain (LeuRSMabs; pMabsED) (Mycobacteroides abscessus, UniProt B1MMK6); assay: isothermal titration calorimetry; format: binding
T2 construct: gene leuS; editing domain, residues 303-499 (text on crystals prints 303-498); N-terminal His tag with TEV site, removed; synthetic codon-optimised gene, pET24a(+), E. coli BL21(DE3)
T2 sequence (B1MMK6 303-499): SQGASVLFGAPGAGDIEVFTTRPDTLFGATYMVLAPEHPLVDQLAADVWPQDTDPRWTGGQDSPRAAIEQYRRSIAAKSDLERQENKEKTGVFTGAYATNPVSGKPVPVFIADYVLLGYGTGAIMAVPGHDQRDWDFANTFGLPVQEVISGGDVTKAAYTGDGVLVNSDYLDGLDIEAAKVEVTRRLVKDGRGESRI
Excerpt: isothermal titration calorimetry on M. abscessus LeuRS editing domain (LeuRSMabs; pMabsED)

B. cereus = assay: microbe, parasite or virus in culture; parameters: Whole-cell growth inhibition, dose-response MIC (MIC90) by resazurin microtiter assay (REMA), fluorescence read-out; conditions: Bacillus cereus, read-out: MIC (µg/mL) / EPT
C. glutamicum = assay: microbe, parasite or virus in culture; parameters: Whole-cell growth inhibition, dose-response MIC (MIC90) by resazurin microtiter assay (REMA), fluorescence read-out; conditions: Corynebacterium glutamicum, read-out: MIC (µg/mL) / EPT
E. coli = assay: microbe, parasite or virus in culture; parameters: Whole-cell growth inhibition, dose-response MIC (MIC90) by resazurin microtiter assay (REMA), fluorescence read-out; conditions: Escherichia coli, read-out: MIC (µg/mL) / EPT
M. abscessus = assay: microbe, parasite or virus in culture; parameters: Whole-cell growth inhibition, dose-response MIC (MIC90) by resazurin microtiter assay (REMA), fluorescence read-out; conditions: Mycobacteroides abscessus, read-out: MIC (µg/mL) / EPT
M. avium hominissuis = assay: microbe, parasite or virus in culture; parameters: Whole-cell growth inhibition, dose-response MIC (MIC90) by resazurin microtiter assay (REMA), fluorescence read-out; conditions: Mycobacterium avium, read-out: MIC (µg/mL) / EPT
M. avium intracellulaire = assay: microbe, parasite or virus in culture; parameters: Whole-cell growth inhibition, dose-response MIC (MIC90) by resazurin microtiter assay (REMA), fluorescence read-out; conditions: Mycobacterium avium, read-out: MIC (µg/mL) / EPT
M. tuberculosis Erdman = test system: T3, M. tuberculosis Erdman; assay: microbe, parasite or virus in culture; parameters: Whole-cell growth inhibition, dose-response MIC (MIC90) by resazurin microtiter assay (REMA), fluorescence read-out; conditions: Mycobacterium tuberculosis, ERDMAN, read-out: MIC (µg/mL) / EPT
T3 construct: Erdman

M. tuberculosis H37Rv = test system: T4, M. tuberculosis H37Rv; assay: microbe, parasite or virus in culture; parameters: Whole-cell growth inhibition, dose-response MIC (MIC90) by resazurin microtiter assay (REMA), fluorescence read-out; conditions: Mycobacterium tuberculosis, H37RV, read-out: MIC (µg/mL) / EPT
T4 construct: H37Rv

P. aeruginosa = assay: microbe, parasite or virus in culture; parameters: Whole-cell growth inhibition, dose-response MIC (MIC90) by resazurin microtiter assay (REMA), fluorescence read-out; conditions: Pseudomonas aeruginosa, read-out: MIC (µg/mL) / EPT
[3] = test system: T5, Mycobacteroides abscessus subsp. abscessus ATCC 19977; assay: microbe, parasite or virus in culture; parameters: species or system M. abscessus; Resazurin microtiter assay (REMA), fluorescence; MIC at 90% growth inhibition from Gompertz fit; conditions: ATCC19977, 48 h, rough morphotype, read-out: MIC EPT
T5 construct: ATCC 19977
Protocol: (§1) MIC values were determined using the resazurin microtiter assay (REMA). Cultures were grown to log phase (OD600 of 0.4–0.8) and diluted to OD600 of 0.005. Drugs were prepared in two-fold serial dilutions in 96-well plates with 90 μL of bacteria per well to a final volume of 100 μL. Plates were incubated at 37°C until drug-free wells were turbid (2 days for M. abscessus). Ten μL of resazurin (0.025% wt/vol) was added to each well. Once the drug-free wells turned pink (one doubling time), the fluorescence (ex/em 560nm/590nm) was measured using an Infinite F200 Tecan plate reader. Fluorescence intensities were converted to % viable cells relative to drug-free conditions and fit to the Gompertz equation using GraphPad Prism version 9. MIC values at 90% growth inhibition were determined from the nonlinear regression Gompertz equation. Next, we tested the in vitro activity of EPT against a panel of M. abscessus clinical isolates belonging to the three subspecies of the M. abscessus complex (M. abscessus, M. massiliense, and M. bolletii) with smooth and rough colony morphologies and with different drug susceptibility profiles to various antibiotics. There was no loss in activity against clinical isolates (range of 0.014–0.046 μg/mL) nor different morphologies (S2 Table). To determine the spectrum of activity of EPT, we curated a panel of various mycobacteria and representative gram-positive and gram-negative bacteria. […] Mycobacteria strains were grown in rolling [compound left out] culture at 37°C in Middlebrook 7H9 (Difco) supplemented with 10% albumin dextrose catalase (ADC), 0.2% glycerol, and 0.05% Tween 80 (7H9 complete) or on 7H10 agar plates supplemented with 10% oleic acid ADC and 0.5% glycerol at 37°C. When mentioned, the carbon source was modified from glycerol to acetate or the detergent Tween 80 was removed from the media. Bacillus cereus (clinical isolate), Corynebacterium glutamicum (ATCC 13032), Escherichia coli, and Pseudomonas aeruginosa PAO1 were grown in LB broth. HepG2 cells (ATCC HB-8065) were grown in Dulbecco’s modified Eagle’s medium (DMEM) with phenol red (from Gibco) supplemented with 10% fetal bovine serum at 37°C with 5% CO2.

[4] = test system: T6, Mycobacteroides abscessus subsp. abscessus MT16_1065; assay: microbe, parasite or virus in culture; parameters: species or system M. abscessus; Resazurin microtiter assay (REMA), fluorescence; MIC at 90% growth inhibition from Gompertz fit; conditions: 48 h, smooth morphotype, read-out: MIC EPT
T6 construct: MT16_1065
Protocol: as §1

[5] = test system: T7, Mycobacteroides abscessus subsp. abscessus MT16_6490; assay: microbe, parasite or virus in culture; parameters: species or system M. abscessus; Resazurin microtiter assay (REMA), fluorescence; MIC at 90% growth inhibition from Gompertz fit; conditions: 48 h, smooth morphotype, read-out: MIC EPT
T7 construct: MT16_6490
Protocol: as §1

[6] = test system: T8, Mycobacteroides abscessus subsp. bolletii AV; assay: microbe, parasite or virus in culture; parameters: species or system M. abscessus; Resazurin microtiter assay (REMA), fluorescence; MIC at 90% growth inhibition from Gompertz fit; conditions: 48 h, smooth morphotype, read-out: MIC EPT
T8 construct: AV
Protocol: as §1

[7] = test system: T9, Mycobacteroides abscessus subsp. bolletii Paris 167; assay: microbe, parasite or virus in culture; parameters: species or system M. abscessus; Resazurin microtiter assay (REMA), fluorescence; MIC at 90% growth inhibition from Gompertz fit; conditions: 48 h, rough morphotype, read-out: MIC EPT
T9 construct: Paris 167
Protocol: as §1

[8] = test system: T10, Mycobacteroides abscessus subsp. massiliense MT15_1748; assay: microbe, parasite or virus in culture; parameters: species or system M. abscessus; Resazurin microtiter assay (REMA), fluorescence; MIC at 90% growth inhibition from Gompertz fit; conditions: 48 h, rough morphotype, read-out: MIC EPT
T10 construct: MT15_1748
Protocol: as §1

[9] = test system: T11, Mycobacteroides abscessus subsp. massiliense MT15_1749; assay: microbe, parasite or virus in culture; parameters: species or system M. abscessus; Resazurin microtiter assay (REMA), fluorescence; MIC at 90% growth inhibition from Gompertz fit; conditions: 48 h, rough morphotype, read-out: MIC EPT
T11 construct: MT15_1749
Protocol: as §1

T1 sequence (P9WFV1 311-512 limits assumed): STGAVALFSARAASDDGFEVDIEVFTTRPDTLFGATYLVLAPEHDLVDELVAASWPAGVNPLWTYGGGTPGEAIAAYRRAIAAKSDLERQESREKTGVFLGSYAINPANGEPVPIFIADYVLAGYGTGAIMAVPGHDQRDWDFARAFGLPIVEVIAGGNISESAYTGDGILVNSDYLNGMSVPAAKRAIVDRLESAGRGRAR

Which results are given for `NC[C@H]1OB(O)c2c(OCCCO)cccc21` [epetraborole]?
Kd [1]: 10 ± 4 µM; Kd [2]: 16 ± 4 µM; MIC (B. cereus): > 2.7 µg/mL; MIC (C. glutamicum): 2 µg/mL (≈ 8.44 µM); MIC (E. coli): 5.7 µg/mL (≈ 24 µM); MIC (M. abscessus): 0.063 µg/mL (≈ 0.266 µM); MIC (M. avium hominissuis): 2.7 µg/mL (≈ 11.4 µM); MIC (M. avium intracellulaire): 2.7 µg/mL (≈ 11.4 µM); MIC (M. tuberculosis Erdman): 0.19 µg/mL (≈ 0.801 µM); MIC (M. tuberculosis H37Rv): 0.46 µg/mL (≈ 1.94 µM); MIC (P. aeruginosa): > 2.7 µg/mL; MIC [3]: 0.11 µg/mL (≈ 0.464 µM); MIC [4]: 0.041 µg/mL (≈ 0.173 µM); MIC [5]: 0.03 µg/mL (≈ 0.127 µM); MIC [6]: 0.046 µg/mL (≈ 0.194 µM); MIC [7]: 0.027 µg/mL (≈ 0.114 µM); MIC [8]: 0.022 µg/mL (≈ 0.0928 µM); MIC [9]: 0.014 µg/mL (≈ 0.0591 µM)
